According to patent US11999732B2, “P2X3 receptor antagonists” (RECORDATI INDUSTRIA CHIMICA E FARMACEUTICA SPA, priority 2018, dated 2024):
Like-named read-outs stand apart in the source and are kept apart here.

Molecular target: T1, human P2X3 receptor (Homo sapiens, UniProt P56373)
T1 construct: expressed in transfected cells; host or cells: CHO-K1
T1 sequence (P56373 1-397): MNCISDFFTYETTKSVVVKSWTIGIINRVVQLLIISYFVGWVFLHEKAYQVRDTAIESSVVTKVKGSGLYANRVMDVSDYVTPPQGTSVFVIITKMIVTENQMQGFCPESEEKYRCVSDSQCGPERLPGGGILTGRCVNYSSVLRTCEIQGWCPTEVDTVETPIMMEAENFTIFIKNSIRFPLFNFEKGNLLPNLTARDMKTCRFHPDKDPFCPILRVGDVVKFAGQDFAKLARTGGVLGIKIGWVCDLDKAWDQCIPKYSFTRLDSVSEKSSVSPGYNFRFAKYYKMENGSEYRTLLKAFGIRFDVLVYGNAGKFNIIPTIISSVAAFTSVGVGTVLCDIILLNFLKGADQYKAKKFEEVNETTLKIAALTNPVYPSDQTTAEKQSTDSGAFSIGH
Test: Calcium luminescence (photoprotein) assay in CHO-K1 cells co-expressing human P2X3 receptor, α,β-Met-ATP stimulation, FLEXSTATION readout
Type: cell-based
Details: human P2X3 receptor antagonist activity, CHO-K1 cells, α,β-Met-ATP, read-out: h-P2X3 IC50
Outline: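 CHO-K1 cells co-expressing human P2X3 and a Ca2+-sensitive photoprotein, loaded with coelenterazine in Tyrode's buffer (pH 7.4) for 4 h at 37 °C. Compounds injected 4 min before α,β-Met-ATP stimulation; luminescence recorded, IC50 and pseudo-Hill slope from nonlinear regression of inhibition curves.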

Cc1c(C(C)C)nc2c3ncc(N4CC5(COC5)C4)cc3n(Cc3ccc(Cl)cc3)c(=O)n12 [Example 91, 6-(4-chlorobenzyl)-3-methyl-8-(2-oxa-6-azaspiro[3.3]heptan-6-yl)-2-(propan-2-yl)imidazo[1,2-c]pyrido[2,3-e]pyrimidin-5(6H)-one]
IC50 (Table 7): 507 nM

CC(C)(C)c1nnc2c3ncc(N4CCOCC4)cc3c(Cc3ccc(Cl)cc3)nn12 [Example 111, 3-tert-butyl-6-(4-chlorobenzyl)-8-(morpholin-4-yl)pyrido[2,3-d][1,2,4]triazolo[4,3-b]pyridazine]
IC50 (Table 8): 102 nM

COCC1CN(c2cnc3c(c2)n(Cc2ccc(OC)cc2)c(=O)n2c(C)c(C(C)C)nc32)C1 [Example 92, 6-(4-methoxybenzyl)-8-[3-(methoxymethyl)azetidin-1-y1]-3-methyl-2-(propan-2-yl)imidazo[1,2-c]pyrido[2,3-e]pyrimidin-5(6H)-one]
IC50 (Table 7): 802 nM

COc1ccc(Cn2c(=O)n3nc(C(C)(C)C)nc3c3ncc(N4CCOCC4)cc32)cc1 [Example 157, 2-tert-butyl-6-(4-methoxybenzyl)-8-(morpholin-4-yl)pyrido[2,3-e][1,2,4]triazolo[1,5-c]pyrimidin-5(6H)-one]
IC50 (Table 9): 495 nM

COc1cc(CN2C(=O)N3CC(C)(C)CN=C3c3ncc(NCCO)cc32)cc(OC)c1 [Example 144, 5-(3,5-dimethoxybenzyl)-3-[(2-hydroxyethyl)amino]-9,9-dimethyl-5,8,9,10-tetrahydro-6H-pyrido[2,3-e]pyrimido[1,2-c]pyrimidin-6-one]
IC50 (Table 9): 2480 nM

COc1cc(CN2C(=O)N3C(=NCC3c3ccccc3)c3ncc(N4CCOCC4)cc32)cc(OC)c1 (centres unmarked) [Example 47, 6-(3,5-dimethoxybenzyl)-8-(morpholin-4-yl)-3-phenyl-2,6-dihydroimidazo[1,2-c]pyrido[2,3-e]pyrimidin-5(3H)-one]
IC50 (Table 6): 199 nM

COc1ccc(Cn2c(=O)n3nc(CC(C)C)nc3c3ncc(N4CCOCC4)cc32)cc1 [Example 156, 6-(4-methoxybenzyl)-2-(2-methylpropyl)-8-(morpholin-4-yl)pyrido[2,3-e][1,2,4]triazolo[1,5-c]pyrimidin-5(6H)-one]
IC50 (Table 9): 608 nM

COc1ccc(CN2C(=O)N3CC(C(C)C)N=C3c3ncc(N4CCC(N(C)C)CC4)cc32)cc1 (centres unmarked) [Example 21, 8-[4-(dimethylamino)piperidin-1-yl]-6-(4-methoxybenzyl)-2-(propan-2-yl)-2,6-dihydroimidazo[1,2-c]pyrido[2,3-e]pyrimidin-5(3H)-one]
IC50 (Table 6): 7190 nM

CC(C)NC(=O)Cc1nnc2c3ncc(N4CCOCC4)cc3n(Cc3ccc(Cl)cc3)c(=O)n12 [Example 103, 2-[6-(4-chlorobenzyl)-8-(morpholin-4-y1)-5-oxo-5,6-dihydropyrido[2,3-e][1,2,4]triazolo[4,3-c]pyrimidin-3-yl]-n-(propan-2-yl)acetamide]
IC50 (Table 7): 811 nM

O=C1N(Cc2ccc(Cl)cc2)c2cc(N3CCOCC3)cnc2C2=NCC(C3CCCCC3)N12 (centres unmarked) [Example 26, 6-(4-chlorobenzyl)-3-cyclohexyl-8-(morpholin-4-yl)-2,6-dihydroimidazo[1,2-c]pyrido[2,3-e]pyrimidin-5(3H)-one]
IC50 (Table 6): 469 nM

COc1ccc(CN2C(=O)N3CC(c4ccccc4)N=C3c3ncc(N4CCOCC4)cc32)cc1 (centres unmarked) [Example 28, 6-(4-methoxybenzyl)-8-(morpholin-4-yl)-2-phenyl-2,6-dihydroimidazo[1,2-c]pyrido[2,3-e]pyrimidin-5(3H)-one]
IC50 (Table 6): 375 nM

COc1cc(CN2C(=O)N3CCN=C3c3ncc(N4CCOCC4)cc32)cc(OC)c1 [Example 7, 6-(3,5-dimethoxybenzyl)-8-(morpholin-4-yl)-2,6-dihydroimidazo[1,2-c]pyrido[2,3-e]pyrimidin-5(3H)-one]
IC50 (Table 6): 1640 nM

COc1cc(CN2C(=O)N3CC(C)(C)CN=C3c3ncc(N4CCOCC4)cc32)cc(OC)c1 [Example 147, 5-(3,5-dimethoxybenzyl)-9,9-dimethyl-3-(morpholin-4-yl)-5,8,9,10-tetrahydro-6H-pyrido[2,3-e]pyrimido[1,2-c]pyrimidin-6-one]
IC50 (Table 9): 2440 nM

CCN(CC)c1cnc2c(c1)N(Cc1ccc(OC)cc1)C(=O)N1C2=NC(=O)C1C(C)(C)C (centres unmarked) [Example 165, 3-tert-butyl-8-(diethylamino)-6-(4-methoxybenzyl)imidazo[1,2-c]pyrido[2,3-e]pyrimidine-2,5(3H,6H)-dione]
IC50 (Table 9): 702 nM

COc1cc(Cn2c(=O)n3c(C)c(C)nc3c3ncc(N4CC5(COC5)C4)cc32)cc(OC)c1 [Example 81, 6-(3,5-dimethoxybenzyl)-2,3-dimethyl-8-(2-oxa-6-azaspiro[3.3]heptan-6-yl)imidazo[1,2-c]pyrido[2,3-e]pyrimidin-5(6H)-one]
IC50 (Table 7): 269 nM

Cc1c(C(C)C)nc2c3ncc(C(=O)NCCO)cc3n(Cc3ccc(Cl)cc3)c(=O)n12 [Example 95, 6-(4-chlorobenzyl)-n-(2-hydroxyethyl)-3-methyl-5-oxo-2-(propan-2-y1)-5,6-dihydroimidazo[1,2-c]pyrido[2,3-e]pyrimidine-8-carboxamide]
IC50 (Table 7): 2980 nM

COc1ccc(CN2C(=O)N3CC(CC(C)(C)C)N=C3c3ncc(N4CCOCC4)cc32)cc1 (centres unmarked) [Example 34, 2-(2,2-dimethylpropyl)-6-(4-methoxybenzyl)-8-(morpholin-4-y1)-2,6-dihydroimidazo[1,2-c]pyrido[2,3-e]pyrimidin-5(3H)-one]
IC50 (Table 6): 408 nM

CC(C)C1CN2C(=O)N(Cc3ccc(Cl)cc3)c3cc(N4CCC(O)CC4)cnc3C2=N1 (centres unmarked) [Example 51, 6-(4-chlorobenzyl)-8-(4-hydroxypiperidin-1-yl)-2-(propan-2-yl)-2,6-dihydroimidazo[1,2-c]pyrido[2,3-e]pyrimidin-5(3H)-one]
IC50 (Table 6): 731 nM

CC(C)Cc1nnc2c3ncc(N4CCOCC4)cc3c(Cc3ccc(Cl)cc3)nn12 [Example 133, 6-(4-chlorobenzyl)-3-(2-methylpropyl)-8-(morpholin-4-yl)pyrido[2,3-d][1,2,4]triazolo[4,3-b]pyridazine]
IC50 (Table 8): 217 nM

O=C(C1CN2C(=O)N(Cc3ccc(Cl)cc3)c3cc(N4CCOCC4)cnc3C2=N1)N1CCOCC1 (centres unmarked) [Example 54, 6-(4-chlorobenzyl)-8-(morpholin-4-yl)-2-(morpholin-4-ylcarbonyl)-2,6-dihydroimidazo[1,2-c]pyrido[2,3-e]pyrimidin-5(3H)-one]
IC50 (Table 6): 1700 nM

COc1cc(Cn2c(=O)n3c(C)c(C)nc3c3ncc(N4CCC(OC)CC4)cc32)cc(OC)c1 [Example 85, 6-(3,5-dimethoxybenzyl)-8-(4-methoxypiperidin-1-yl)-2,3-dimethylimidazo[1,2-c]pyrido[2,3-e]pyrimidin-5(6H)-one]
IC50 (Table 7): 1300 nM

COc1cc(CN2C(=O)N3CC(C(C)C)N=C3c3ncc(NC4CCOCC4)cc32)cc(OC)c1 (centres unmarked) [Example 49, 6-(3,5-dimethoxybenzyl)-2-(propan-2-yl)-8-(tetrahydro-2H-pyran-4-ylamino)-2,6-dihydroimidazo[1,2-c]pyrido[2,3-e]pyrimidin-5(3H)-one]
IC50 (Table 6): 872 nM

COc1cc(CN2C(=O)N3CC(C4CCCCC4)N=C3c3ncc(N4CCOCC4)cc32)cc(OC)c1 (centres unmarked) [Example 43, 2-cyclohexyl-6-(3,5-dimethoxybenzyl)-8-(morpholin-4-yl)-2,6-dihydroimidazo[1,2-c]pyrido[2,3-e]pyrimidin-5(3H)-one]
IC50 (Table 6): 112 nM
